From patent US20240059703A1 (AMGEN INC., priority 2021, published 2024)
Read-outs that look alike come from different tables or passages of the source.

Tests used:
[1] = test system: A549 (human lung carcinoma) cells; experiment: Cell Viability Assay (CellTiter-Glo), A549; format: cell-based
Method: MIA PaCa-2 (human pancreatic carcinoma; ATCC CRL-1420) or A549 (human lung carcinoma; ATCC CCL-185) cells were cultured in RPMI 1640 medium containing 10% fetal bovine serum and 1× penicillin/streptomycin/L-glutamine. Cells were seeded in 384-well plates at a density of 1.67E+04 cells/mL and incubated at 37° C., 5% CO2, overnight. Serially-diluted compound or DMSO was added to the cells, and plates were incubated at 37° C., 5% CO2 for 72 h. Cell viability was measured using a CellTiter-Glo® Luminescent Cell Viability Assay kit (Promega) according to the manufacturer's protocol. The luminescence signal of treated samples was normalized to DMSO control, and data were analyzed using a 4-parameter logistic model to calculate IC50 values.

KRAS G12C = KRAS G12C (Homo sapiens (Human), UniProt P01116, C118A/G12C); experiment: 2 h coupled exchange assay; format: biochemical
Sequence of KRAS G12C (P01116 other isoform, or with tags, fused parts or gaps G12C/C118A): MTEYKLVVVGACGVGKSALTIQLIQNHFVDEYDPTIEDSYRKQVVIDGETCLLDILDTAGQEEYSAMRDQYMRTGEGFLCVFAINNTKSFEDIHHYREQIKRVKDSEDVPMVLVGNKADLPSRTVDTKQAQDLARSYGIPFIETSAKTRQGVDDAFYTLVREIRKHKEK
Method: The term “2 h coupled exchange assay” or “20 h coupled exchange assay” as used herein refers to the assay described in the Section entitled “BIOLOGICAL EVALUATION.”

[2] = test system: MIA PaCa-2 (human pancreatic carcinoma) cells; experiment: Cell Viability Assay (CellTiter-Glo), MIA PaCa-2; format: cell-based
Method: Serially-diluted compound or DMSO was added to the cells, and plates were incubated at 37° C., 5% CO2 for 72 h. Cell viability was measured using a CellTiter-Glo® Luminescent Cell Viability Assay kit (Promega) according to the manufacturer's protocol. The luminescence signal of treated samples was normalized to DMSO control, and data were analyzed using a 4-parameter logistic model to calculate IC50 values.

[3] = Avg 2 h Coupled exchange IC50, 2 h compound pre-incubation, SOS-mediated nucleotide exchange
[4] = read-out: Avg 2 h Coupled exchange IC50, 2 h compound pre-incubation

IC50 ([1]; Homo sapiens, A549, 72 h) [nM]	IC50 (KRAS G12C; [3]) [nM]	IC50 ([2]; Homo sapiens, MIA PaCa-2, 72 h) [nM]	IC50 ([1]; 72 h) [nM]	IC50 (KRAS G12C; [4]) [nM]	IC50 ([2]; 72 h) [nM]	IC50 (KRAS G12C; Avg 2 h Coupled exchange IC50, 2 h compound pre-incubation) [nM]	Compound
> 5000	93	462					C=CC(=O)N1CC2(CCN(c3nc4c(c(-c5c(C)ccc6[nH]ncc56)c3C#N)[C@H](C)O[C@H](C)C4)C2)C1 (racemic) [Example 13-13, (5R,7S)-5,7-dimethyl-4-(5-methyl-1H-indazol-4-yl)-2-(2-(2-propenoyl)-2,6-diazaspiro[3.4]octan-6-yl)-7,8-dihydro-5H-pyrano[4,3-b]pyridine-3-carbonitrile|(5S,7R)-5,7-dimethyl-4-(5-methyl-1H-indazol-4-yl)-2-(2-(2-propenoyl)-2,6-diazaspiro[3.4]octan-6-yl)-7,8-dihydro-5H-pyrano[4,3-b]pyridine-3-carbonitrile]
			> 5000	281	3310		C=CC(=O)N1CC2(CCN(c3nc4c(c(-c5cccc(C)c5C)n3)CC[C@@H](c3nccs3)C4)C2)C1 (racemic) [Example 22-3, 1-(6-((7R)-4-(2,3-dimethylphenyl)-7-(1,3-thiazol-2-yl)-5,6,7,8-tetrahydro-2-quinazolinyl)-2,6-diazaspiro[3.4]octan-2-yl)-2-propen-1-one|1-(6-((7S)-4-(2,3-dimethylphenyl)-7-(1,3-thiazol-2-yl)-5,6,7,8-tetrahydro-2-quinazolinyl)-2,6-diazaspiro[3.4]octan-2-yl)-2-propen-1-one]
> 5000		299				85	C=CC(=O)N1CC2(CCN(c3nc4c(c(-c5ncccc5F)c3C#N)CC[C@@H](c3scnc3C)C4)C2)C1 (racemic) [Example 23-57, (7R)-4-(3-fluoro-2-pyridinyl)-7-(4-methyl-1,3-thiazol-5-yl)-2-(2-(2-propenoyl)-2,6-diazaspiro[3.4]octan-6-yl)-5,6,7,8-tetrahydro-3-quinolinecarbonitrile (7S)-4-(3-fluoro-2-pyridinyl)-7-(4-methyl-1,3-thiazol-5-yl)-2-(2-(2-propenoyl)-2,6-diazaspiro[3.4]octan-6-yl)-5,6,7,8-tetrahydro-3-quinolinecarbonitrile]
			> 5000	62	1120		C=CC(=O)N1CC2(CCN(c3nc4c(c(-c5c(C)ccc6[nH]ncc56)c3C#N)CC(C(C)C)C4)C2)C1 (racemic) [Example 24-1, (6R)-4-(5-methyl-1H-indazol-4-yl)-6-(2-propanyl)-2-(2-(2-propenoyl)-2,6-diazaspiro[3.4]octan-6-yl)-6,7-dihydro-5H-cyclopenta[b]pyridine-3-carbonitrile and (6S) 4-(5-methyl-1H-indazol-4-yl)-6-(2-propanyl)-2-(2-(2-propenoyl)-2,6-diazaspiro[3.4]octan-6-yl)-6,7-dihydro-5H-cyclopenta[b]pyridine-3-carbonitrile]
> 5000	14				36.4		C=CC(=O)N1CC2(CCN(c3nc4c(c(-c5c(C)ccc6[nH]ncc56)c3C#N)CCC(C)(C)C4)C2)C1 (single isomer, unassigned) [Example 1-8, (P)-7,7-dimethyl-4-(5-methyl-1H-indazol-4-yl)-2-(2-(2-propenoyl)-2,6-diazaspiro[3,4]octan-6-yl)-5,6,7,8-tetrahydro-3-quinolinecarbonitrile]
	6700		2910		2500		C=CC(=O)N1CC2(CCN(c3nc4c(c(-c5c(C)ccc6[nH]ncc56)c3C#N)CCC(C)(C)C4)C2)C1 (single isomer, unassigned) [Example 1-10, (M)-7,7-dimethyl-4-(5-methyl-1H-indazol-4-yl)-2-(2-(2-propenoyl)-2,6-diazaspiro[3.4]octan-6-yl)-5,6,7,8-tetrahydro-3-quinolinecarbonitrile]
6750	27	53					C=CC(=O)N1CC2(CCN(c3nc4c(c(-c5c(C)ccc6[nH]ncc56)c3C)CCC(C)(C)C4)C2)C1 (single isomer, unassigned) [Example 2-11, (P)-1-(6-(3,7,7-trimethyl-4-(5-methyl-1H-indazol-4-yl)-5,6,7,8-tetrahydro-2-quinolinyl)-2,6-diazaspiro[3.4]octan-2-yl)-2-propen-1-one]
> 5000	66	106					C=CC(=O)N1CC2(CCN(c3nc4c(c(-c5cccc6cc(O)ccc56)c3C)CCC(C)(C)C4)C2)C1 (single isomer, unassigned) [Example 2-15, (P)-1-(6-(4-(6-hydroxy-1-naphthalenyl)-3,7,7-trimethyl-5,6,7,8-tetrahydro-2-quinolinyl)-2,6-diazaspiro[3.4]octan-2-yl)-2-propen-1-one]
> 5000	64	155					C=CC(=O)N1CC2(CCN(c3nc4c(c(-c5ccc(F)c6sc(N)nc56)c3C)CCC(C)(C)C4)C2)C1 (single isomer, unassigned) [Example 2-17]
> 5000	161	441					C=CC(=O)N1CC2(CCN(c3nc4c(c(-c5c(C)ccc6cnn(C)c56)c3C)CCC(C)(C)C4)C2)C1 (single isomer, unassigned) [Example 2-21, (P)-1-(6-(4-(1,6-dimethyl-1H-indazol-7-yl)-3,7,7-trimethyl-5,6,7,8-tetrahydro-2-quinolinyl)-2,6-diazaspiro[3.4]octan-2-yl)-2-propen-1-one]
	9		> 5000		68		C=CC(=O)N1CC2(CCN(c3nc4c(c(-c5cc(O)cc6ccccc56)c3C#N)[C@H]3CC[C@@H]4C3)C2)C1 (single isomer, unassigned) [Example 2-39]
	46		2000		529		C=CC(=O)N1CC2(CCN(c3nc4c(c(-c5cc(O)cc6ccccc56)c3C#N)[C@H]3CC[C@@H]4C3)C2)C1 (single isomer, unassigned) [Example 2-40]
> 5000	77	> 5000					C=CC(=O)N1CC2(CCN(c3nc4c(c(-c5cc(O)cc6cccnc56)c3C#N)C[C@H]3C[C@@H]4C3(C)C)C2)C1 (single isomer, unassigned) [Example 2-45]
> 5000	6	135					C=CC(=O)N1CC2(CCN(c3nc4c(c(-c5cc(O)cc6ncccc56)c3C#N)C[C@H]3C[C@@H]4C3(C)C)C2)C1 (single isomer, unassigned) [Example 2-46]
> 5000	28	56					C=CC(=O)N1CC2(CCN(c3cc4c(c(-c5cc(O)cc6ccccc56)c3C#N)OCCC4)C2)C1 (single isomer, unassigned) [Example 2-54, (M)-8-(3-hydroxy-1-naphthalenyl)-6-(2-(2-propenoyl)-2,6-diazaspiro[3.4]octan-6-yl)-3,4-dihydro-2H-chromene-7-carbonitrile]
> 5000	106	921					C=CC(=O)N1CC2(CCN(c3nc4ccccc4c(-c4c(C)ccc5[nH]ncc45)c3C)[C@H]2C)C1 (single isomer, unassigned) [Example 2-57]
> 5000	282	2080					C=CC(=O)N1CC2(CCN(c3nc4cc(F)ccc4c(-c4c(C)ccc5[nH]ncc45)c3C)[C@H]2C)C1 (single isomer, unassigned) [Example 2-58]
	134		> 5000		1320		C=CC(=O)N1CC2(CCN(c3nc4cc(F)ccc4c(-c4c(C)ccc5[nH]ncc45)c3C)[C@H]2C)C1 (single isomer, unassigned) [Example 2-61]
